Marks after values point to notes of the source that are not given here.
Experiments:
[1] = tested on: MES-SA/B1 cells; assay: MTT viability assay, MES-SA/B1; format: cell-based, human; conditions: for IC50: Homo sapiens, MES-SA, 72 h, MTT 72 h
Description: (§1) MDCK II canine kidney cells, A431 epidermoid carcinoma cells, the human uterine sarcoma cell lines MES-SA and the doxorubicin selected MES-SA-Dx5 were obtained from ATCC (MDCK II: No. CRL-2936™, A431: No. CRL-1555™, MES-SA: No. CRL-1976™, MES-SA/Dx5: No. CRL-1977™). ABCB1 was expressed in A431 and MES-SA cells using lentiviral transduction. The human cervix carcinoma cell line KB-3-1 and the vinblastine selected KB-v1were kind gifts from Dr. Michael M. Gottesman, National Institutes of Health. The phenotype of the resistant cells was verified using cytotoxicity assays. MDCK-B1 and MDCK-MM were established by the Sleeping Beauty transposon-based gene delivery system. OVCAR-8 and NCI-ADRres cells (obtained from the Division of Cancer Treatment and Diagnosis (DCTD) Tumor Repository (National Cancer Institute, Frederick, MD, USA)) were cultivated in RPMI-1640 (Sigma Aldrich, Budapest, Hungary), and other cell lines were cultivated in Dulbecco’s Modified Eagle Medium (DMEM, Sigma Aldrich, Budapest, Hungary), supplemented with 10% fetal bovine serum, 5 mM glutamine, and 50 unit/mL penicillin and streptomycin (Life Technologies, Carlsbad, CA, USA). All cell lines were cultivated at 37 °C, 5% CO2.
(§2) MTT viability assays were performed as described earlier with minor modifications. Briefly, cells were seeded into 96-well tissue culture plates (Sarstedt, Newton, NC, USA/Orange, Braine-l’Alleud, Belgium) at a density of 5000 cells/well and allowed to attach overnight. Test compounds were added to achieve the required final concentration in a final volume of 100 µL per well. After an incubation period of 72 h, the supernatant was removed and fresh medium containing the MTT reagent (0.083 mg/mL) was added. Incubation with MTT at 37 °C was terminated after 1 h by removing the supernatant and lysing the cells with 100 µL DMSO per well. Viability of the cells was measured spectrophotometrically based on the absorbance values at 540 nm using either a Perkin Elmer Victor X3 or an EnSpire microplate reader. Data were background corrected by subtraction of the signal obtained from unstained cell lysates and normalized to untreated cells. Curves were fitted by Prism software (GraphPad Software Inc., San Diego, CA, USA) using the sigmoidal dose-response model (comparing variable and fixed slopes). […] Significance was calculated using unpaired t-tests; results are given as *: p ≤ 0.05, **: p ≤ 0.01, ***: p ≤ 0.001, ****: p ≤ 0.0001.

[2] = tested on: OVCAR-8 cells; assay: MTT viability assay, OVCAR-8; format: cell-based; conditions: Homo sapiens, OVCAR-8, 72 h, MTT 72 h
Description: as §1, §2

[3] = tested on: KB-v1 cells; assay: MTT viability assay, KB-v1; format: cell-based; conditions: Homo sapiens, KB-V1, 72 h, MTT 72 h
Description: as §1, §2

[4] = tested on: A431-B1 cells; assay: MTT viability assay, A431-B1; format: cell-based; conditions: for IC50: 72 h, MTT 72 h
Description: as §1, §2

[5] = tested on: MDCK-B1 cells; assay: MTT viability assay, MDCK-B1 (wild-type Pgp); format: cell-based, canine; conditions: for IC50: Canis lupus familiaris, 72 h, MTT 72 h
Description: as §1, §2

[6] = tested on: MDCK-MM cells; assay: MTT viability assay, MDCK-MM (non-functional Pgp); format: cell-based, canine; conditions: for IC50: Canis lupus familiaris, 72 h, MTT 72 h; for SR MDCK-MM: IC50 MDCK vs. MDCK-MM
Description: as §1, §2

[7] = tested on: MES-SA cells; assay: ROS determination with DCFDA, MES-SA; format: cell-based, human; conditions: 2 h
Protocol: Measurements were performed as described earlier. Briefly, cells were harvested, washed with PBS, and incubated with 10 µM DCFDA in a water bath shaker at 37 °C for 30 min in a density of 3 × 10^6 cells/mL. After washing with PBS, cells were seeded to 96-well plates in PBS in a density of 2 × 10^4 cells/well. Following the measurement of the basal fluorescence, test compounds were added in different concentrations and the fluorescence of the samples was followed at time intervals of 10 min. DCFDA solution in buffer was used as a cell free control to test for interaction of the test compounds with DCFDA. Data were analyzed as fold change of fluorescence compared to basal levels and untreated cells. Significance was calculated using unpaired t-tests; results are given as *: p ≤ 0.05, **: p ≤ 0.01, ***: p ≤ 0.001, ****: p ≤ 0.0001.
Table S3: Characterization of intracellular ROS production with the DCFDA assay for P -gp negative MES-SA and P-gp positive MES-SA/Dx5 cells. Fold changes in fluorescence are shown after a 2 h with the investigated 8 -hydroxyquinoline ligands. Data S-refer to Figure 7 and allow […]
concentration range from 6.25µ M to 50µ M. Fold change of fluorescence obtained in the presence of 5 mM NAC is given in brackets.

[8] = parameters: method as in PMID 21275772; conditions: T = 25 °C, I = 0.2 M (KCl), cited from earlier work; for pKa (additional): group named in the cell
[9] = presence of 1 µM Tariquidar (values in brackets)
[10] = IC50 MES-SA vs. MES-SA/B1, absence of Tariquidar
[11] = IC50 MES-SA vs. MES-SA/B1, presence of 1 µM Tariquidar (brackets)
[12] = IC50 A431 vs. A431-B1, absence of Tariquidar
[13] = IC50 A431 vs. A431-B1, presence of 1 µM Tariquidar (brackets)
[14] = IC50 MDCK vs. MDCK-B1, absence of Tariquidar
[15] = IC50 MDCK vs. MDCK-B1, presence of 1 µM Tariquidar (brackets)
[16] = presence of 1 µM Tariquidar (brackets)
[17] = 6.25 µM, presence of 5 mM NAC (brackets)
[18] = 12.5 µM, presence of 5 mM NAC (brackets)
[19] = 25 µM, presence of 5 mM NAC (brackets)
[20] = 50 µM, presence of 5 mM NAC (brackets)

Compound | IC50 ([1]; absence of Tariquidar) [µM] | IC50 [1, 9] [µM] | SR MES-SA/B1 [1, 10] | SR MES-SA/B1 [1, 11] | IC50 ([2]; absence of Tariquidar) [µM] | IC50 [2, 9] [µM] | IC50 ([3]; absence of Tariquidar) [µM] | IC50 [3, 9] [µM] | IC50 ([4]; absence of Tariquidar) [µM] | IC50 [4, 9] [µM] | IC50 ([5]; absence of Tariquidar) [µM] | IC50 [5, 9] [µM] | SR MDCK-B1 [5, 14] | SR MDCK-B1 [5, 15] | IC50 ([6]; absence of Tariquidar) [µM] | IC50 [6, 9] [µM] | SR MDCK-MM ([6]; absence of Tariquidar) | SR MDCK-MM [6, 16] | Fold change in fluorescence (DCFDA) ([7]; 6.25 µM) | Fold change in fluorescence (DCFDA) [7, 17] | further results
Oc1cccc2cccnc12 [Compound Q-1, 8-Hydroxyquinoline] | 3.68 ± 0.95 | 4.92 | 1.14 | 1.03 | 3.45 ± 0.13 | 3.43 | 8.71 ± 4.43 | 10.8 | 8.21 ± 4.04 | 7.06 | 4.58 ± 1.75 | 15.2 | 0.71 | 0.20 | 3.34 ± 0.6 | 3.59 | 0.97 | 0.86 | 0.965± 0.12 | 1.261± 0.26 | SR A431-B1 [4, 12]: 0.31; SR A431-B1 [4, 13]: 0.41; Fold change in fluorescence (DCFDA) ([7]; 12.5 µM): 0.799± 0.12; Fold change in fluorescence (DCFDA) [7, 18]: 1.148± 0.32; Fold change in fluorescence (DCFDA) ([7]; 25 µM): 0.722± 0.22; Fold change in fluorescence (DCFDA) [7, 19]: 1.193± 0.44; Fold change in fluorescence (DCFDA) ([7]; 50 µM): 0.748± 0.21; Fold change in fluorescence (DCFDA) [7, 20]: 0.912± 0.38; pKa (NquinoliniumH+) [8]: 4.99 ^a; pKa (OH) [8]: 9.51 ^a
Oc1c(CNCc2ccccc2F)cc(Cl)c2cccnc12 [Compound Q-4, 5-chloro-7-((2-fluorobenzylamino)methyl)quinolin-8-ol] | 0.3 ± 0.06 | 1.03 | 9.24 | 2.16 | 1.08 ± 0.1 | 1.09 | 0.27 ± 0.12 | 2.27 | 2.57 ± 0.56 | 7.95 | 0.89 ± 0.35 | 6.95 | 5.13 | 0.85 | 5.23 ± 2.11 | 6.27 | 0.87 | 0.94 | 1.207± 0.20 | 1.030± 0.16 | Fold change in fluorescence (DCFDA) ([7]; 12.5 µM): 1.190± 0.14; Fold change in fluorescence (DCFDA) [7, 18]: 1.033± 0.21; Fold change in fluorescence (DCFDA) ([7]; 25 µM): 1.187± 0.29; Fold change in fluorescence (DCFDA) [7, 19]: 0.985± 0.12; Fold change in fluorescence (DCFDA) ([7]; 50 µM): 1.151± 0.19; Fold change in fluorescence (DCFDA) [7, 20]: 1.040± 0.17; pKa (NquinoliniumH+) [8]: < 2 ^a; pKa (OH) [8]: 5.16 ^a; pKa (additional) [8]: 8.54 ^a (NbenzylamineH2^+)
Oc1c(CN2CCCCC2)ccc2cccnc12 [Compound Q-3, 7-(piperidin-1-ylmethyl)quinolin-8-ol] | 0.83 ± 0.02 | 1.5 | 4.95 | 1.99 | 3.15 ± 0.36 | 3.72 | 1.56 ± 0.57 | 7.47 | 1.14 ± 0.16 | 5.58 | 3.22 ± 1.02 | 12.4 | 2.36 | 0.82 | 6.67 ± 2 | 8.45 | 1.14 | 1.20 | 1.288± 0.24 | 1.097± 0.11 | SR A431-B1 [4, 12]: 3.96; SR A431-B1 [4, 13]: 0.73; Fold change in fluorescence (DCFDA) ([7]; 12.5 µM): 1.372± 0.22; Fold change in fluorescence (DCFDA) [7, 18]: 1.080± 0.27; Fold change in fluorescence (DCFDA) ([7]; 25 µM): 1.464± 0.39; Fold change in fluorescence (DCFDA) [7, 19]: 1.119± 0.24; Fold change in fluorescence (DCFDA) ([7]; 50 µM): 1.753± 0.37; Fold change in fluorescence (DCFDA) [7, 20]: 1.054± 0.25; pKa (NquinoliniumH+) [8]: 2.69 ^a; pKa (OH) [8]: 6.99 ^a; pKa (additional) [8]: >11.5 ^a
Oc1c(CN2CCOCC2)ccc2cccnc12 [Compound Q-2, 7-(morpho-lino-methyl)quinolin-8-ol] | 3.12 ± 0.28 | 3.6 | 2.23 | 1.29 | 3.16 ± 0.52 | 3.28 | 6.42 ± 2.19 | 11.3 | 4.05 ± 1.86 | 7.64 | 12 ± 7.84 | 12.1 | 0.76 | 0.92 | 9.74 ± 4.04 | 9.01 | 0.82 | 1.23 | 1.598± 0.32 | 1.096± 0.16 | SR A431-B1 [4, 12]: 0.82; SR A431-B1 [4, 13]: 0.42; Fold change in fluorescence (DCFDA) ([7]; 12.5 µM): 1.792± 0.53; Fold change in fluorescence (DCFDA) [7, 18]: 0.930± 0.16; Fold change in fluorescence (DCFDA) ([7]; 25 µM): 2.101± 0.86; Fold change in fluorescence (DCFDA) [7, 19]: 0.988± 0.15; Fold change in fluorescence (DCFDA) ([7]; 50 µM): 2.454± 1.39; Fold change in fluorescence (DCFDA) [7, 20]: 0.946± 0.14; pKa (NquinoliniumH+) [8]: 2.59 ^a; pKa (OH) [8]: 10.37 ^a; pKa (additional) [8]: 6.25 ^a (NmorpholiniumH^+)

Reference: PMC7796460, “Relation of Metal-Binding Property and Selective Toxicity of 8-Hydroxyquinoline Derived Mannich Bases Targeting Multidrug Resistant Cancer Cells” (Cancers, 2021)
